# Source: ChEMBL document CHEMBL5252615, “Synthesis, biological activity and mechanism of action of novel allosecurinine derivatives as potential antitumor agents” (Bioorg Med Chem, 2023)
# Calls of active or inactive are those of the source. The calls are words filed in the database; no cut-off is given here.
# Experiments:
# Type in all cases: functional, cell-based
# U-937 [1] = assay: Antitumor activity against human U-937 cells assessed as reduction in cell viability incubated for 72 hrs; conditions: U-937, 72 h
# KG-1 [2] = assay: Antitumor activity against human KG-1 cells assessed as reduction in cell viability incubated for 72 hrs; conditions: KG-1, 72 h
# SK-OV-3 [3] = assay: Antitumor activity against human SK-OV-3 cells assessed as reduction in cell viability incubated for 72 hrs; conditions: SK-OV-3, 72 h
# HL-60 [4] = assay: Antitumor activity against human HL-60 cells assessed as reduction in cell viability incubated for 72 hrs; conditions: HL-60, 72 h
# THP-1 [5] = assay: Antitumor activity against human THP-1 cells assessed as reduction in cell viability incubated for 72 hrs; conditions: THP-1, 72 h
# SK-OV-3 [6] = assay: Antitumor activity against taxol-resistant human SK-OV-3 cells assessed as reduction in cell viability incubated for 72 hrs; conditions: SK-OV-3, 72 h
# NB-4 [7] = assay: Antitumor activity against human NB4 cells assessed as reduction in cell viability incubated for 72 hrs; conditions: NB-4, 72 h
# SU-DHL-2 = assay: Antitumor activity against human SUDHL2 cells assessed as reduction in cell viability incubated for 72 hrs; conditions: SU-DHL-2, 72 h
# K562 = assay: Antitumor activity against human K562 cells assessed as reduction in cell viability incubated for 72 hrs; conditions: K562, 72 h
# HL-60 [8] = assay: Induction of differentiation of human HL-60 cells assessed as increase in CD11b expression at 0.5 uM measured after 72 hrs by flow cytometric analysis
# NB-4 [9] = assay: Induction of differentiation of human NB4 cells assessed as increase in CD11b expression at 0.5 uM measured after 72 hrs by flow cytometric analysis
# KG-1 [10] = assay: Induction of differentiation of human KG-1 cells assessed as increase in CD11b expression at 0.5 uM measured after 72 hrs by flow cytometric analysis
# U-937 [11] = assay: Induction of differentiation of human U-937 cells assessed as increase in CD11b expression at 0.5 uM measured after 72 hrs by flow cytometric analysis
# THP-1 [12] = assay: Induction of differentiation of human THP1 cells assessed as increase in CD11b expression at 0.5 uM measured after 72 hrs by flow cytometric analysis
Compound,IC50 (U-937 [1]) [µM],IC50 (SK-OV-3 [3]) [µM],IC50 (HL-60 [4]) [µM],IC50 (THP-1 [5]) [µM],IC50 (SK-OV-3 [6]) [µM],IC50 (SU-DHL-2) [µM],IC50 (K562) [µM],IC50 (KG-1 [2]) [µM],IC50 (NB-4 [7]) [µM],Activity (HL-60 [8]),Activity (NB-4 [9]),Activity (KG-1 [10]),Activity (U-937 [11]),Activity (THP-1 [12])
"O=C1O[C@@]23CC(C=CC2=C1C(O)c1ccccc1[N+](=O)[O-])N1CCCC[C@H]13 (single isomer, unassigned)",8.05,10.2,9.2,10.7,9.91,16.1,3.7,4.18,3.3,–,–,–,–,–
CC(C)(C)c1ccc(C(O)C2=C3C=C[C@@H]4C[C@@]3(OC2=O)[C@@H]2CCCCN42)cc1 (stereo not given in full),16.7,14.9,16,16.1,17,20.9,20.1,5.77,15.9,–,–,–,–,–
Cc1ccccc1C(O)C1=C2C=C[C@@H]3C[C@@]2(OC1=O)[C@@H]1CCCCN31 (stereo not given in full),8.04,20.1,13.4,26.9,19.3,27.2,12.7,10,5.01,–,–,–,–,–
CC[C@@]1(O)C(=O)OCc2c1cc1n(c2=O)Cc2cc3ccccc3nc2-1 [CAMPTOTHECIN],1.81,–,0.91,1.89,4.86,0.94,0.58,2.31,2.01,–,–,–,–,–
O=C1O[C@@]23C[C@@H](C=CC2=C1C(O)c1ccc(-c2ccccc2)cc1)N1CCCC[C@H]13 (stereo not given in full),3.63,14.8,6.76,9.15,13.8,9.59,3.15,4.77,3.32,–,–,–,–,–
O=C1C=C2C=C[C@H]3C[C@@]2(O1)[C@@H]1CCCCN13,14.9,35.2,21.2,> 50,36.4,> 50,38.1,> 50,20.4,–,–,–,–,–
O=C1O[C@@]23C[C@@H](C=CC2=C1C(O)c1ccc(C(F)(F)F)cc1)N1CCCC[C@H]13 (stereo not given in full),3.68,13.5,4.17,6.16,14.8,12.1,6.06,1.83,1.99,–,–,–,–,–
O=C1O[C@@]23C[C@@H](C=CC2=C1C(O)c1ccc([N+](=O)[O-])cc1[N+](=O)[O-])N1CCCC[C@H]13 (stereo not given in full),6.36,7.86,10.8,18,8.89,18.3,10.8,3.08,12,–,–,–,–,–
O=C1O[C@@]23C[C@@H](C=CC2=C1C(O)c1csc2ccccc12)N1CCCC[C@H]13 (stereo not given in full),29.6,22.2,20.4,15.6,20.7,27.9,2.37,6.14,4.45,–,–,–,–,–
N#Cc1cccc(C(O)C2=C3C=C[C@@H]4C[C@@]3(OC2=O)[C@@H]2CCCCN42)c1 (stereo not given in full),1.79,6.68,9.98,16.1,7.61,20.1,6.02,1.95,7.7,–,–,–,–,–
N#Cc1ccc(C(O)C2=C3C=C[C@@H]4C[C@@]3(OC2=O)[C@@H]2CCCCN42)cc1 (stereo not given in full),2.2,4.18,7.16,15.6,4.54,19.3,3.11,2.57,3.84,–,–,–,–,–
O=C1O[C@@]23C[C@@H](C=CC2=C1C(O)c1ccccc1Br)N1CCCC[C@H]13 (stereo not given in full),4.38,7.76,3.52,15.5,5.59,20.7,1.68,4.11,4.67,–,–,–,–,–
O=C1O[C@@]23C[C@@H](C=CC2=C1C(O)c1ccc(Cl)cc1)N1CCCC[C@H]13 (stereo not given in full),7.56,9.94,11.8,14.8,11,18.3,4.47,3.95,10.1,–,–,–,–,–
O=C1O[C@@]23C[C@@H](C=CC2=C1C(O)c1ccc(F)cc1F)N1CCCC[C@H]13 (stereo not given in full),6.99,14.7,7.66,15.8,14.9,15.3,10.3,2.21,5.8,–,–,–,–,–
O=C1O[C@@]23C[C@@H](C=CC2=C1C(O)c1ccc(F)cc1)N1CCCC[C@H]13 (stereo not given in full),16.6,6.84,15.2,12.4,8.32,15.3,17.3,2.12,10.3,–,–,–,–,–
O=C1O[C@@]23C[C@@H](C=CC2=C1C(O)c1ccc(Br)cc1)N1CCCC[C@H]13 (stereo not given in full),10.8,14.2,9.92,15.5,12.5,15.2,2.58,2.27,6.18,–,–,–,–,–

# Now from value to molecule, other results behind:
IC50 (U-937 [1]) [µM],IC50 (SK-OV-3 [3]) [µM],IC50 (HL-60 [4]) [µM],IC50 (THP-1 [5]) [µM],IC50 (SK-OV-3 [6]) [µM],IC50 (SU-DHL-2) [µM],IC50 (K562) [µM],Compound,IC50 (KG-1 [2]) [µM],IC50 (NB-4 [7]) [µM],Activity (HL-60 [8]),Activity (NB-4 [9]),Activity (KG-1 [10]),Activity (U-937 [11]),Activity (THP-1 [12])
4.22,10.2,9.47,3.34,12.8,20.3,7.14,O=C1O[C@@]23C[C@@H](C=CC2=C1C(O)c1ccccc1F)N1CCCC[C@H]13 (stereo not given in full),3.54,10.9,–,–,–,–,–
3.81,4.52,7.42,19.2,5.37,16.4,5.37,O=C1O[C@@]23C[C@@H](C=CC2=C1C(O)c1ccccc1Cl)N1CCCC[C@H]13 (stereo not given in full),3.8,3.18,–,–,–,–,–
13.8,21,–,16.4,–,18,–,O=C1O[C@@]23C[C@@H](C=CC2=C1C(O)c1nc2ccccc2s1)N1CCCC[C@H]13 (stereo not given in full),–,–,–,–,–,–,–
11.1,7.58,11.5,12.7,8.42,19.4,8.35,Cc1ccc(C(O)C2=C3C=C[C@@H]4C[C@@]3(OC2=O)[C@@H]2CCCCN42)cc1 (stereo not given in full),5.58,13.2,–,–,–,–,–
27.3,11.6,17.2,25.9,12.5,20.8,17.7,CS(=O)(=O)c1ccc(C(O)C2=C3C=C[C@@H]4C[C@@]3(OC2=O)[C@@H]2CCCCN42)cc1 (stereo not given in full),4.84,12.8,–,–,–,–,–
4.64,3.11,6.2,12,3.5,9.28,2.69,O=C1O[C@@]23C[C@@H](C=CC2=C1C(O)c1cccc([N+](=O)[O-])c1)N1CCCC[C@H]13 (stereo not given in full),1.98,3.01,Active,Active,Active,Active,Active
9.23,14.5,14.7,20.7,15.1,19,16.9,O=C1O[C@@]23C[C@@H](C=CC2=C1C(O)c1ccccc1)N1CCCC[C@H]13 (stereo not given in full),9.12,13.3,–,–,–,–,–
8.73,3.42,8.73,12,6.52,16,4.45,O=C1O[C@@]23C[C@@H](C=CC2=C1C(O)c1cccc(F)c1)N1CCCC[C@H]13 (stereo not given in full),3.98,4.01,–,–,–,–,–
